According to patent US20140179681A1, “METHODS AND COMPOSITIONS OF TARGETED DRUG DEVELOPMENT” (priority 2010, published 2014):
Structures can show the parent of a compound that is named as a salt. Where two headings read alike, the source gives them in different places.

Experiments:
EGFR = target: T1, EGFR (Homo sapiens, UniProt P00533); test: EGFR in-cell Western (ICW) screening protocol (EGFR inhibition assay); assay type: cell-based; set-up: ICW 1 / ICW 2 / ICW Avg: unit not given here; conditions: for ICW assay: Table 10, % Inhibition of EGF dependent EGFR phosphorylation in A431 cells, compound 125 μM in assay; for ICW Avg / ICW 1 / ICW 2: ICW assay; for ICW Avg: average of runs 1 and 2; for ICW 1: run 1; for ICW 2: run 2
T1 construct: host or cells: A431
How it was run: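 In-cell Western read-out: fixed A431 cells were co-stained for total EGFR and phospho-EGFR (Tyr1173; some runs Tyr1045). Before fixation, cells were serum-starved for 2 h, exposed to compound for 4 h, then given EGF for 10 min, usually at 10 ng/ml final (6.6 or 12.5 ng/ml in some runs).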

[1] = system: epithelial carcinoma A431 cell line; test: MTT Cell Proliferation Assay, A431 cells; assay type: cell-based; conditions: for MTT Assay IC50(A431/MDBK): ratio in parentheses: ratio MDBK IC50 / A431 IC50 (selectivity)
How it was run: (§1)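 Each concentration ran in quadruplicate across duplicate plates, with compounds serially diluted in DMSO and delivered at 0.5% DMSO in 0.5% FBS medium for 3 days.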

MDBK line = test: MTT Cell Proliferation Assay, MDBK cells; assay type: cell-based, bovine
How it was run: as §1

[2] = Homo sapiens, A-431, 72 h, Table 10, first of x/y(ratio): A431, three day treatment, unit not printed (doses in μM), read-out: MTT assay (first value)
[3] = Bos taurus, MDBK, 72 h, Table 10, second of x/y(ratio): MDBK, three day treatment, unit not printed (doses in μM), read-out: MTT assay (second value)
[4] = Homo sapiens, A-431, first value of 'a/b (c)', taken as A431 cells, read-out: MTT Screen, first value of cell
[5] = Bos taurus, MDBK, second value of 'a/b (c)', taken as MDBK cells, read-out: MTT Screen, second value of cell
[6] = Homo sapiens, A-431, A431 cells, first value of cell, read-out: MTT Assay IC50(A431/MDBK): A431
[7] = Bos taurus, MDBK, MDBK cells, second value of cell, read-out: MTT Assay IC50(A431/MDBK): MDBK
[8] = A431 cells, first value of cell, read-out: MTT Assay IC50(A431/MDBK): A431
[9] = MDBK cells, second value of cell, read-out: MTT Assay IC50(A431/MDBK): MDBK
[10] = first value of 'a/b (c)', taken as A431 cells, read-out: MTT Screen, first value of cell
[11] = second value of 'a/b (c)', taken as MDBK cells, read-out: MTT Screen, second value of cell

T1 sequence (P00533 25-1210): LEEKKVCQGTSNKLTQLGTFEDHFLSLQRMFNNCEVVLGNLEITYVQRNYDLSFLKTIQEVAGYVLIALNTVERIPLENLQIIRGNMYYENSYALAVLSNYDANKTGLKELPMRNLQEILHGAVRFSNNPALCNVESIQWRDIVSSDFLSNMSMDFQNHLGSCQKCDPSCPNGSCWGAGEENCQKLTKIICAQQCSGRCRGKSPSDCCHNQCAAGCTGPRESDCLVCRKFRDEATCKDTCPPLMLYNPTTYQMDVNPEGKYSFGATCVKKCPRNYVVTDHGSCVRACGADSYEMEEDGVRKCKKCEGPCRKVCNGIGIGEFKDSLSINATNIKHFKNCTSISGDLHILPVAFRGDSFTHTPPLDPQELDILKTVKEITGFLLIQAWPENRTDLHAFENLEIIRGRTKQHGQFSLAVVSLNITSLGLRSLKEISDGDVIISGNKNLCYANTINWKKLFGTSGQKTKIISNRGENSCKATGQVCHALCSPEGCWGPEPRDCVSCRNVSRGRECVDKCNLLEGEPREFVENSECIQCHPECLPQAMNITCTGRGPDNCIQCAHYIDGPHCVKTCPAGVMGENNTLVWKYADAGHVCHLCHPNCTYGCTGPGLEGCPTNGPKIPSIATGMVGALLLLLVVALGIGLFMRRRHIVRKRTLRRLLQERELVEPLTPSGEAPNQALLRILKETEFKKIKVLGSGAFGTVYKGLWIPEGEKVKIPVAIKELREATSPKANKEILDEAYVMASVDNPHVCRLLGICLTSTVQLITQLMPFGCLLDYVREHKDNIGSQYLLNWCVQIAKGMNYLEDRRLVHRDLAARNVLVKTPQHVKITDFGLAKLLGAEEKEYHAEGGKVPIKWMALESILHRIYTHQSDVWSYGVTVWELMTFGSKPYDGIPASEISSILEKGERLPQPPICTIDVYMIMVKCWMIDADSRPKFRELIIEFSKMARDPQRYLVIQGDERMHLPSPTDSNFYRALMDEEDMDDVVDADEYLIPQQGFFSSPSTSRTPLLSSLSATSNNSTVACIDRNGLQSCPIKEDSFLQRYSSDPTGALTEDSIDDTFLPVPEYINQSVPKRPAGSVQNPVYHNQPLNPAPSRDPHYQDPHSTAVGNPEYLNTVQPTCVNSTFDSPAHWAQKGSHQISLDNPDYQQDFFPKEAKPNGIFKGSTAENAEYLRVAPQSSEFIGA

ICW assay (EGFR) | IC50 [1, 2] [µM] | ICW Avg (EGFR) | ICW 1 (EGFR) | ICW 2 (EGFR) | IC50 [1, 6] [µM] | MTT Assay IC50(A431/MDBK): ratio in parentheses [1] | Compound | IC50 (MDBK line; [3]) [µM] | IC50 (MDBK line; [7]) [µM] | further results
84.5602 | 6.45 |  |  |  |  |  | Cc1ccccc1NS(=O)(=O)c1ccc(NC(=S)Nc2cccc(C(F)(F)F)c2)cc1 [AD4-12487] | 5.5 |  | 
69.4793 | 4.05 |  |  |  |  |  | Cc1ccc(NC(=S)Nc2ccc(S(=O)(=O)Nc3cc(Cl)cc(Cl)c3)cc2)cc1C [AD4-12400] | 5.77 |  | 
 |  | 31.68 | 30.00 | 33.36 |  | 0.68 | CCCc1cc(=O)[nH]c(Nc2nc(C)c3ccc(C)cc3n2)n1 [compound 12655] |  |  | IC50 [1, 8]: 11.6 µM; IC50 (MDBK line; [9]): 7.89 µM
44.2167 | 6.65 |  |  |  |  |  | Cc1ccccc1NS(=O)(=O)c1ccc(NC(=S)Nc2ccc(F)c(Cl)c2)cc1 [AD4-12477] | 5.44 |  | 
32.6456 | 26.6 |  |  |  |  |  | CC1CCc2cc(F)ccc2N1S(=O)(=O)c1ccc(NC(=S)Nc2ccc3c(c2)OCO3)cc1 (stereo not drawn) [AD4-12828] | 63.4 |  | 
35.1542 | 6.28 |  |  |  |  |  | CC1CCc2cc(F)ccc2N1S(=O)(=O)c1ccc(NC(=S)Nc2cccc(F)c2)cc1 (stereo not drawn) [AD4-12837] | 5.68 |  | 
53.1391 | 4.06 |  |  |  |  |  | Cc1cc(C)cc(NC(=S)Nc2ccc(S(=O)(=O)Nc3cc(Cl)cc(Cl)c3)cc2)c1 [AD4-12461] | 5.91 |  | 
28.3382 | 6.54 |  |  |  |  |  | COc1cc(NC(=S)Nc2ccc(S(=O)(=O)Nc3cc(Cl)cc(Cl)c3)cc2)cc(OC)c1 [AD4-12482] | 6.05 |  | 
 |  | 37.11 | 48.00 | 26.22 | 6.41 | 0.84 | FC(F)(F)c1cc(C(F)(F)F)nc(Nc2nc(-c3ccccc3)c3cc(Cl)ccc3n2)n1 [compound 11449] |  | 5.4 | 
29.02 | 7.71 |  |  |  |  |  | CC1CCc2cc(F)ccc2N1S(=O)(=O)c1ccc(NC(=S)Nc2ccc(Br)cc2Cl)cc1 (stereo not drawn) [AD4-12832] | 16.3 |  | 
31.5308 | 30.4 |  |  |  |  |  | COc1ccc(NC(=S)Nc2ccc(S(=O)(=O)Nc3ccccc3C)cc2)c(OC)c1 [AD4-12517] | 20 |  | 
 |  | 30.77 | 24.37 | 37.17 | 12.8 | 0.70 | Cc1nc(Nc2nc(C(C)C)cc(=O)[nH]2)nc2c(C)cccc12 [compound 12777] |  | 8.96 | 
34.0556 | 6.7 |  |  |  |  |  | COc1cccc(NC(=S)Nc2ccc(S(=O)(=O)Nc3ccc(Cl)cc3)cc2)c1 [AD4-12411] | 5.18 |  | 
 |  | 32.21 | 25.88 | 38.53 | 6.71 | 2.83 | CCc1ccc2nc(Nc3nc(-c4cccc(OC)c4)cc(=O)[nH]3)nc(C)c2c1 [compound 11503] |  | 19 | 
79.1185 | 5.59 |  |  |  |  |  | Cc1cccc(NC(=S)Nc2ccc(S(=O)(=O)Nc3ccc(Cl)c(Cl)c3)cc2)c1 [AD4-12442] | 5.76 |  | 

More lines, now with the values behind:

Compound | ICW assay (EGFR) | IC50 [1, 2] [µM] | ICW Avg (EGFR) | ICW 1 (EGFR) | ICW 2 (EGFR) | IC50 [1, 6] [µM] | MTT Assay IC50(A431/MDBK): ratio in parentheses [1] | IC50 (MDBK line; [3]) [µM] | IC50 (MDBK line; [7]) [µM] | further results
CCCC(=O)NC(=S)Nc1ccc(S(=O)(=O)Nc2ccc(OCC)cc2)cc1 [AD4-12183] |  |  |  |  |  |  |  |  |  | ICW Screen (ICW Inhibition) (EGFR): 37.695; IC50 [1, 4]: 25.6 µM; IC50 (MDBK line; [5]): 17.2 µM
Cc1ccc2nc(Nc3nc(C(C)C)cc(=O)[nH]3)nc(C)c2c1 [12741 + TFA] |  |  | 33.57 | 42.10 | 25.04 | 63.2 | 0.44 |  | 28 | 
COc1cccc2c(C)nc(Nc3nc(C)cc(=O)[nH]3)nc12 [11772 + TFA] |  |  | 77.09 | 80.68 | 73.50 | 9.75 | 0.93 |  | 9.04 | 
CCCCCC1C(=O)N=C(Nc2nc(C)c3ccc(CC)cc3n2)N=C1C (stereo not drawn) [12214 + TFA] |  |  | 34.91 | 42.29 | 27.52 | 32.4 | 1.40 |  | 45.5 | 
COc1cccc(-c2cc(=O)[nH]c(Nc3nc(C)c4cccc(OC)c4n3)n2)c1 [11513 + TFA] |  |  | 33.45 | 32.64 | 34.26 | 6.73 | 0.94 |  | 6.32 | 
CCc1ccc2nc(Nc3nc(=O)cc(CSc4nc5ccccc5s4)[nH]3)nc(C)c2c1 [11300 + TFA] |  |  | 25.61 | 25.11 | 26.12 | 26.3 | 0.30 |  | 7.95 | 
Cc1nc(Nc2nc(=O)cc(CSc3ccc(Cl)cc3)[nH]2)nc2ccccc12 [11445 + TFA] |  |  | 60.28 | 59.54 | 61.02 |  | 4.70 |  | 45.1 | IC50 [1, 8]: 9.61 µM
COc1cc(NS(=O)(=O)c2ccc(NC(=S)NC(=O)/C=C/c3ccc(C)cc3)cc2)nc(OC)n1 [AD4-11874] |  |  |  |  |  |  |  |  |  | ICW Screen (ICW Inhibition) (EGFR): 32.474; IC50 [1, 4]: 35 µM; IC50 (MDBK line; [5]): 39 µM
Cc1ccc(SCc2cc(=O)[nH]c(Nc3nc(C)c4cccc(C)c4n3)n2)cc1 [11707 + TFA] |  |  | 40.51 | 43.70 | 37.31 | 15.7 |  |  |  | MTT Assay IC50(A431/MDBK): MDBK (MDBK line; MDBK cells, second value of cell): non-convergent
Cc1cc(NS(=O)(=O)c2ccc(NC(=S)NC(=O)/C=C/c3ccccc3)cc2)no1 [AD4-11885] |  |  |  |  |  |  |  |  |  | ICW Screen (ICW Inhibition) (EGFR): 32.38; IC50 [1, 10]: 37.8 µM; IC50 (MDBK line; [11]): 48.3 µM
O=C(NC(=S)Nc1ccc(S(=O)(=O)Nc2ccccc2)cc1)C1CC1 [AD4-11413] |  |  |  |  |  |  |  |  |  | ICW Screen (ICW Inhibition) (EGFR): 46.23; IC50 [1, 10]: 31.4 µM; IC50 (MDBK line; [11]): 29.8 µM
CC(=O)c1ccc(NC(=S)Nc2ccc(S(=O)(=O)Nc3ccccc3C)cc2)cc1 [AD4-10700] | 52.5996 | 14.7 |  |  |  |  |  | 14.3 |  | 
CCOc1cccc2c(C)nc(Nc3nc(C)c(C)c(=O)[nH]3)nc12 [12735 + TFA] |  |  | 64.72 | 69.46 | 59.98 | 17.9 | 0.85 |  | 15.3 | 
O=C(NC(=S)Nc1ccc(S(=O)(=O)Nc2ccccc2)cc1)C1CC1 [AD4-12098] |  |  |  |  |  |  |  |  |  | ICW Screen (ICW Inhibition) (EGFR): 25.946; IC50 [1, 4]: 23.4 µM; IC50 (MDBK line; [5]): 16.4 µM
CCCc1cc(=O)[nH]c(Nc2nc(C)c3cc(C)c(C)cc3n2)n1 [12673 + TFA] |  |  | 52.80 | 44.70 | 60.90 |  | 0.68 |  |  | IC50 [1, 8]: 33.1 µM; IC50 (MDBK line; [9]): 22.5 µM
CCOc1ccc2nc(Nc3nc(=O)cc(-c4ccccc4)[nH]3)nc(C)c2c1 [12608 + TFA] |  |  | 42.36 | 46.64 | 38.07 | 43.1 |  |  | 17 | 
CCCCc1c(C)nc(Nc2nc(C)c3ccccc3n2)[nH]c1=O [12603 + TFA] |  |  | 38.61 | 48.06 | 29.15 |  | 0.62 |  | 10.1 | IC50 [1, 8]: 16.2 µM
Cc1cccc(Cc2c(C)nc(Nc3nc(C)c4cccc(C)c4n3)[nH]c2=O)c1 [11754 + TFA] |  |  | 29.97 | 34.09 | 25.85 | 5.58 | 1.35 |  | 7.55 | 
Cc1ccc(NS(=O)(=O)c2ccc(NC(=S)NC(=O)COc3ccc(Cl)cc3C)cc2)c(C)c1 [AD4-12152] |  |  |  |  |  |  |  |  |  | ICW Screen (ICW Inhibition) (EGFR): 50.528; IC50 [1, 4]: 21 µM; IC50 (MDBK line; [5]): 16.2 µM
Cc1ccccc1OCC(=O)NC(=S)Nc1ccc(S(=O)(=O)NC2CCCCC2)cc1 [AD4-12073] |  |  |  |  |  |  |  |  |  | ICW Screen (ICW Inhibition) (EGFR): 29.313; IC50 [1, 4]: 19.5 µM; IC50 [1, 10]: 11.6 µM; IC50 (MDBK line; [5]): 32.3 µM; IC50 (MDBK line; [11]): 17 µM
Cc1ccc2nc(Nc3nc(C)cc(-c4ccccc4)n3)nc(C)c2c1 [12689 + TFA] |  |  | 30.58 | 44.07 | 17.08 | 44.1 | 0.99 |  | 43.6 | 
O=C(NC(=S)Nc1ccc(S(=O)(=O)NCCc2ccccc2)cc1)C1CCCC1 [AD4-10609] |  |  |  |  |  |  |  |  |  | ICW Screen (ICW Inhibition) (EGFR): 43.828; IC50 [1, 4]: 6.84 µM; IC50 (MDBK line; [5]): 6.34 µM
Cc1cc(C)nc(NS(=O)(=O)c2ccc(NC(=S)NC(=O)/C=C/c3ccc(C(C)C)cc3)cc2)n1 [AD4-11642] |  |  |  |  |  |  |  |  |  | ICW Screen (ICW Inhibition) (EGFR): 40.922; IC50 [1, 4]: 9.89 µM; IC50 (MDBK line; [5]): 9.46 µM
